Results from patent publication US20210100905A1, “APPLICATION OF COMPOUND OR TRADITIONAL CHINESE MEDICINE EXTRACT IN PREPARATION OF NUCLEIC ACID DELIVERY AGENT, AND RELATED PRODUCTS” (INSTITUTE OF BASIC MEDICAL SCIENCES CHINESE ACADEMY OF …, priority 2018, published 2021).
“Also recorded” adds a separate entry of the source.

Tests used:
A549 cells = experiment: Digital PCR (ddPCR) detection of the efficiency of nucleic acid delivery by lipid; assay type: cell-based, human; conditions: boiling or reverse evaporation method; samples after 6 hours (No. 39: reverse evaporation, 6 and 12 hours)
Description: 2.1 Experimental materials: A549 cells were purchased from the Cell Center of the Institute of Basic Medical Sciences, Chinese Academy of Medical Sciences, TRIzol lysis buffer was purchased from Sigma, High capacity cRNA Reverse Transcription Kit was purchased from ABI, USA, and the digital PCR related reagents were purchased from Bio-Rad USA.
(§1) 2.2 Experimental method: the total cellular RNA was collected and extracted by TRIzol lysis buffer according to the above methods, and reverse transcribed to cDNA using High capacity cRNA Reverse Transcription Kit, and the cDNA from different groups was subject to digital PCR reaction. Refering to the QX200 Droplet Reader and QuantaSoft Software manual for the protocols, the results were analyzed using QuantaSoft software.
as §1, with “method:” for “method: the”, “total” for “total cellular”, “method,” for “methods,”, “subjected” for “subject”, “Refer” for “Refering”, “protocols;” for “protocols,”
(§2) 2.2 Experimental method: Total RNA was collected and extracted by TRIzol lysis buffer according to the above method, and reverse transcribed to cDNA using TaqMan™ MicroRNA Reverse Transcription KitHigh, and the cDNA from different groups was subjected to digital PCR reaction. Refer to the QX200 Droplet Reader and QuantaSoft Software manual for the protocols; the results were analyzed using QuantaSoft software.
as §2, with “reversed” for “reverse transcribed”, “High capacity cRNA” for “TaqMan™ MicroRNA”, “Kit,” for “KitHigh,”

[1] = In vivo delivery of single-stranded sRNA by single lipid, gavage (Example 11); parameters: species or system C57 mice; conditions: 10 μL lipid, sRNA 1 nmol each, 12 hours; for delivery of sRNA single-stranded nucleic acid into mouse blood: FIGS. 108, 112-115, oral (gavage), heating method, vs POPC and Lipofectamine RNAiMAX
Experimental: 1. Experimental animals: C57 mice, male, approximately 6 weeks old.
2. Manufacture of lipid mixture: the prepration was conducted on the basis of a dose of 10 μ1 lipid-1 nmol sRNA per mouse as follows: dissolved 1 nmol of each sRNA in 500 μl DEPC water, added 10 μl of the corresponding lipid, pipette to mix thoroughly, and then naturally cooled down after water bath for 15 min at 90° C., and administered via gavage.
1) Tissue sampling and extraction of RNA: 6 hours after gavage in mice, took 500 μl of blood from the eyeball, added 1.5 ml Trizol Reagent LS to thoroughly mix and lyse, added 3 ml Trizol Reagent (purchased from Invitrogen) to the tissue samples and homogenized until complete lysis. Tissues sampled: live/stomach/small intestine.
2) Reverse transcription of sRNA to cDNA: Reverse Transcription Kit (High-Capacity cDNA Reverse Transcription Kits, Applied Biosystems, cat. no. 4368813), was used to reverse transcribe the total RNA to cDNA, and the reverse system was as follows: template RNA (150 ng/μL) 10 μL, 10× RT buffer, 2.0 μL, 25× dNTP Mix (100 mM) 0.8 μL, random primers 2.0 μL, the Multi Scribe™ reverse Transcriptase 1.0 μL, RNase inhibitor 1.0 μL, nuclease-free H2O 3.2 μL. After a brief centrifugation, the reaction was loaded in a PCR reactor. The reaction conditions were as follows: (1) 25° C., 10 min; (2) 37° C., 120 min; (3) 85° C., 5 min; (4) 4° C., termination of the reaction. After the reaction, 20 μL RNase-free ddH2O was added to make up the final volume to 40 μL.
LightCycler 480 fluorescence quantitative PCR instrumentwas used, and the PCR reaction conditions were: 95° C. , 5 min for pre-denaturation, followed by the PCR amplification cycle: (1) 95° C., 10 s; (2) 55° C., 10 s; (3) 72° C., 20 s; a total of 40 cycles; 40° C. for 10 s in the end to cool down. The forward primer and reverse primer of the amplification reaction were designed and synthesized by Beijing Qing Ke New Industrial Biotechnology Co., Ltd. (U6 F primer: GCGCGTCGTGAAGCGTTC (SEQ ID NO: 23), U6 R primer: GTGCAGGGTCCGAGGT (SEQ ID NO: 24)).
3) The relative expression amount was calculated by the 2-ΔCt method.
5) Treatment group of single lipid and nucleic acid mixture: a mixture of 10 μL of single lipid (No. 41) with single-stranded sRNA mixure solution (PGY-sRNA-23, PGY-sRNA-26 and PGY-sRNA-32, 1 nmol each) was treated by heating method and then given to mice via intragastric administration.
2. 12 hours after intragastric administration, the blood was taken from the eyeball, and various tissues (liver/stomach/small intestine) was sampled. TRIzol was used for full lysis and the RNA was extracted to detect the amount of entry.

A549 cell line = experiment: Fluorescence in situ hybridization (FISH) of small RNA; assay type: cell-based, human; conditions: FIG. 12
Experimental: 3.3.3 Fluorescence in Situ Hybridization (FISH) of Small RNA
2) Fix in 4% paraformaldehyde (500 μl/well, prepared in PBS buffer) at room temperature for 20 min.
4) PBS was removed, and cells were permeabilized with PK (proteinase K) buffer at room temperature for 10 min.
9) The culture plate was placed in a hybridization cassette in hybridization buffer (50% formamide, 5×SSC, 5×Denharts, 250 μg/mL yeast RNA, 500 μg/mL herring sperm DNA) and pre-incubated at room temperature for 1 hour.
10) Add RNA probes (HJT-sRNA-m7 probe: 5′-[…]-3′ (SEQ ID NO: 27), Scrambled probe: 5′-[…]-3′ (SEQ ID NO: 28), U6 probe: 5′-TTTGCGTGTCATCCTTGCG-3′ (SEQ ID NO: 29)) to the hybridization buffer (the concentration of RNA probes was 0.1-0.2 ng/μl), denature at 85° C. for 5 min, and quickly place it on ice. […]
Mixtures of soybean PC, lipid No. 11 (18:0/18:2) and lipid No. 12 (16:0/18:2), and various small RNA(see below Table 3) were prepared by the reverse evaporation method and then added into A549 cell line (the final concentration of sRNA was 200 nM); the negative control group (control) was directly added with the same concentration of sRNA; the positive control group (RNAimax) was transfected with Lipofectamine RNAimax (transfection reagent 6 μ/well). The abundance of sRNA in the cells was detected by Taqman probe after 3 hours, and the relative expression level of sRNA was calculated by 2-ΔCt method.

SMILES	delivery of HJT-sRNA-m7 dsRNA into A549 cells (ddPCR) (A549 cells)	delivery of sRNA single-stranded nucleic acid into mouse blood [1]	localization of delivered nucleic acid (FISH) (A549 cell line)	further results
CCCCCCCCCCCCCCCCCCC[C@@H](O)[C@@H](N)CO [No. 41, Sphinganine (d22:0)]	could effectively deliver HJT-sRNA-m7 dsRNA into A549 cells; also recorded: the boiling method had better effects than reverse evaporation method	could effectively deliver sRNA single-stranded nucleic acid into the mouse blood via oral administration; also recorded: the delivery effect was better than POPC and Lipofectamine RNAiMAX	–	delivery of sRNA single-stranded nucleic acid into mouse stomach ([1]; FIG. 109, gavage): could effectively deliver sRNA single-stranded nucleic acid into the mouse stomach via oral administration to protect sRNA from degradation; delivery of sRNA single-stranded nucleic acid into mouse small intestine ([1]; FIG. 110, gavage): could effectively deliver sRNA single-stranded nucleic acid into the mouse small intestine via oral administration to protect sRNA from degradation; delivery of sRNA single-stranded nucleic acid into mouse liver ([1]; FIG. 111, gavage): could effectively deliver sRNA single-stranded nucleic acid into the mouse liver via oral administration to protect sRNA from degradation
CCCCC/C=C\C/C=C\CCCCCCCC(=O)O[C@H](COC(=O)CCCCCCCCCCCCCCCCC)COP(=O)([O-])OCC[N+](C)(C)C [No. 11, trimethyl(2-{[(2R)-2-[(9Z, 12Z)-octadeca-9,12-dienoyloxy]-3-(octadecanoyloxy)propyl-phosphonato]oxy}ethyl) azanium]	–	–	entered into cytoplasm and were primarily localized in cytoplasm	–
CCCCC/C=C\C/C=C\CCCCCCCC(=O)O[C@H](COC(=O)CCCCCCCCCCCCCCC)COP(=O)([O-])OCC[N+](C)(C)C [No. 12, (2-{[(2R)-3-(hexadecanoyloxy)-2-[(9Z,12Z)-octadeca-9,12-dienoyloxy]propylphosphonato]oxy}ethyl) trimethylazanium]	–	–	entered into cytoplasm and were primarily localized in cytoplasm	–
CCCCCCCC/C=C\CCCCCCCCCCCC(=O)O[C@H](COC(=O)CCCCCCCCCCCCCCC)COP(=O)(O)OCCN [No. 40, (2-aminoethoxy) [(2R)-2-[(13Z)-docos-13-enoyloxy]-3-(hexadecanoyloxy)propoxy] phosphinic acid]	could effectively deliver HJT-sRNA-m7 dsRNA into A549 cells	could effectively deliver sRNA single-stranded nucleic acid into mouse blood via oral administration; also recorded: the delivery effect was better than POPC and Lipofectamine RNAiMAX	–	–
CCCCCC/C=C\CCCCCCCC(=O)O[C@H](COC(=O)CCCCCCCCCCCCCCC)COP(=O)(O)OCCN [No. 38, (2-aminoethoxy) [(2R)-2-[(9Z)-hexadec-9-enoyloxy]-3-(hexadecanoyloxy)propoxy] phosphinic acid]	could effectively deliver HJT-sRNA-m7 dsRNA into A549 cells	could effectively deliver sRNA single-stranded nucleic acid into mouse blood via oral administration; also recorded: the delivery effect was better than POPC and Lipofectamine RNAiMAX	–	–
CCCCCCCC/C=C\CCCCCCCCCCCCCC(=O)O[C@H](COC(=O)CCCCCCCCCCCCCC)COP(=O)(O)OCCN [No. 64, 1-pentadecanoyl-2-nervonoyl-sn-glycero-3-phospho-ethanolamine]	–	could effectively deliver sRNA single-stranded nucleic acid into mouse blood via oral administration; also recorded: the delivery effect was better than POPC and Lipofectamine RNAiMAX	–	–
